US20240116864A1, “XANTHOPHYLL DERIVATIVES” (priority 2020, published 2024)

Tested on: Caco-2 cell homogenates
Experiment: Conversion of prodrug to parent compound (astaxanthin) in frozen/thawed unviable Caco-2 cell homogenates
Assay type: in vitro ADME
Excerpt: Formation of astaxanthin in resuspended Caco-2 cells previously frozen.
Human carboxylesterase 1 (hCE-1) and carboxylesterase 2 (hCE-2) are serine esterases involved in both drug metabolism and activation of prodrugs. The expression pattern of human carboxylesterase in Caco-2 (human colon adenocarcinoma) cell line is similar to human […] that expresses a much higher level of hCE-1 and lower level of hCE-2 (Drug Metab. Pharmacokinet. 21 (3): 173-185 (2006)).
Therefore, the formation of astaxanthin from compounds CCXX, CCXXI, CCXXII and CCXXVI was tested with Caco-2 cells that were frozen at −80° C. and thawed before testing. The freezing/thawing process without cryopreservants compromised the integrity of the membrane, as confirmed by positive staining of the dead cells with a dye exclusion method using trypan blue. Dead cells are not selective to compounds passing through the compromised membrane, eliminating the transport and permeation barriers to access the cell content and metabolic enzymes including the carboxylesterases.
The Caco-2 (colorectal adenocarcinoma) cellular line was obtained from Cordoba Cell Bank (CCB, CIQUIBIC, Cordoba, Argentina), #ATCC Passage: 18. #CCB Passage: 4. Culture conditions: Low Glucose DMEM (1 g/L)+Penicillin-Streptomycin+20% Fetal Bovine Serum (SFB). Cells were cultured in a 37° C. incubator with 5% CO2 on cell culture dishes. Once they reached confluence, cells were washed twice with Phosphate-buffered saline (PBS) and lifted after trypsinization. For trypsinization, 1 mL of trypsin was added, incubated for a few minutes in the 37° C. incubator, neutralized with supplemented culture medium and cells were collected in 15 mL tubes (Falcon). The tubes were centrifuged for 5 min at 1000 rpm, the supernatant was removed, and the cells were resuspended in supplemented medium. To determine the amount of viable (living) cells, a ½ dilution with trypan blue dye was made and counted in an automatic cell counter (more than 90% of live cells were measured). Finally, the tubes were centrifuged again, and cells were resuspended at a concentration of 5 million/mL in non-supplemented DMEM and placed in a −80° C. freezer. To determine the amount of non-viable cells after freezing and thawing, a ½ dilution with trypan blue dye was made and they were counted in an automatic cell counter and the dead cells were above 95%. Pools of unviable (“leaking”) cell homogenates were subsequently used for incubations with the compounds of interest.
A 1 mL frozen aliquot containing 5 million/mL of unviable Caco-2 cells was thawed and warmed at 37° C. A 0.010 mL aliquot of a stock solution of the compound in DMSO (2.5 mM) was added to the cells and incubated at 37 ° C. At selected timepoints, a 0.2 mL aliquot was removed and mixed with 0.5 mL of methanol containing retinyl acetate (0.011 mM) as an internal standard. The methanolic mixture was vigorously vortexed and 1 mL of chloroform was added to extract unreacted compound, astaxanthin and related compounds as well as the internal standard. After vigorous vortexing, the mixture was centrifuged at 8000 rpm for 10 min at 4° C. The chloroform phase was removed and dried under nitrogen flow. 1 mL of the sample solvent (THF/acetonitrile with 1% Formic acid) was added to the residue, mixed vigorously and filtered through a PVDF 0.22 um filter in a HPLC vial. The filtrate was stored in the autosampler at 5° C. and injected in the HPLC to measure the amount of internal standard, unreacted compound, free astaxanthin and its related compounds. The HPLC equipment was a UHPLC Nexera XR (Shimadzu)/PDA SPD-M3OA (Shimadzu) with a Shimpack GIST C18 100×2.1 mm, 2 um column at 40° C. Two HPLC methods were used, gradient and isocratic depending on the prodrug. Gradient method: flow 0.2 mL/m, mobile phase A (MPA): water with formic acid 0.1%, mobile phase B (MPB): acetonitrile with formic acid 0.1%, gradient: time 0 m 60/40, 2.5 m 10/90, 10.4 m 10/90. UV(PDA) detector 380 and 325 nm (for retinyl acetate). […]

[1] = unviable Caco-2 cells 5 million/mL, 37 °C, HPLC

SMILES | Conversion to trans-astaxanthin [1] | Conversion efficiency to trans-astaxanthin (comparison between compounds) [1] | Conversion to astaxanthin monoester (Caco-2) | Stability over the same time frame (Caco-2)
CC1=C(/C=C/C(C)=C/C=C/C(C)=C/C=C/C=C(C)/C=C/C=C(C)/C=C/C2=C(C)C(=O)[C@@H](OC(=O)[C@@H](C)NC(=O)c3cccnc3)CC2(C)C)C(C)(C)C[C@H](OC(=O)[C@H](C)NC(=O)c2cccnc2)C1=O [CCXXII] | observed | – | – | –
CC1=C(/C=C/C(C)=C/C=C/C(C)=C/C=C/C=C(C)/C=C/C=C(C)/C=C/C2=C(C)C(=O)[C@@H](OC(=O)CCNC(=O)c3cccnc3)CC2(C)C)C(C)(C)C[C@H](OC(=O)CCNC(=O)c2cccnc2)C1=O [CCXXI, (all-E)-3S,3′S-astaxanthin-di-N-nicotinoyl-β-alaninate] | observed | – | – | –
CC1=C(/C=C/C(C)=C/C=C/C(C)=C/C=C/C=C(C)/C=C/C=C(C)/C=C/C2=C(C)C(=O)[C@@H](OC(=O)CNC(=O)c3cccnc3)CC2(C)C)C(C)(C)C[C@H](OC(=O)CNC(=O)c2cccnc2)C1=O [CCXX, (all-E)-3S,3′S-Astaxanthin-di-N-nicotinoglycinate] | observed | higher conversion efficiency to trans-astaxanthin than CCXXI and CCXXII | – | –
CC1=C(/C=C/C(C)=C/C=C/C(C)=C/C=C/C=C(C)/C=C/C=C(C)/C=C/C2=C(C)C(=O)[C@@H](OC(=O)[C@H](NC(=O)c3cccnc3)C(C)C)CC2(C)C)C(C)(C)C[C@H](OC(=O)[C@@H](NC(=O)c2cccnc2)C(C)C)C1=O [CCXXVI] | – | – | only a small amount | stable
